This test relates to NCI/ADR-RES complex spheroid viability. The experiment in a line: Anticancer human tumor NCI/ADR-RES cell line growth inhibition.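 On all read-outs here: spheroids exposed to compounds for 7 days.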 To be noted: for viability, T/C: stronger effect = lower value; for IC50: curve of compound. An excerpt: Multicellular complex tumor spheroid response to LSD1 Inhibitor Iadademstat in combination with a variety of drugs and investigational agents in selected tumor cell lines
The current study was undertaken to assess response to LSD1 inhibitors in combination with standard-of-care drugs and investigational agents in solid tumor complex spheroid models as well as in the K-562 leukemia. Complex spheroids include a stromal component modeled by human endothelial cells (HUVEC) and fibroblasts modeled by human mesenchymal stem cells (MSCs). The concentration ranges selected for each drug and investigational agent were based upon clinically achievable concentrations if the clinical Cmax of the agent was known.
Compounds. The drugs and investigational agents used in this study are listed on Table 1. All of the agents used, including staurosporine (NSC755774) and gemcitabine (NSC613327), were obtained from the Developmental Therapeutics Program, NCI. FDA-approved anticancer drugs are available from the NCI at http://dtp.nci.nih.gov/branches/dscb/oncology_drugset_explanation.html. Drugs and investigational agents were >95% pure by proton nuclear magnetic resonance (NMR) and liquid chromatography/mass spectrometry (LC/MS). Stock solutions were prepared at 400x in DMSO, stored at -70 degrees C, and diluted in fresh medium prior to their use. The final concentration of DMSO in cell culture wells never exceeded 0.25% (v/v). The FDA-approved anticancer drug set is available from the Developmental Therapeutics Program at https://dtp.cancer.gov/organization/dscb/obtaining/available_plates.htm. All drugs and investigational agents were tested over a range starting from a high concentration at or near the clinical Cmax and decreasing in half-log increments. If the clinical Cmax for an agent had not been determined, the highest concentration tested was 10 microM.
Cell Lines. The patient-derived cancer cell (PDC) lines: 292921-168-R-J2-PDC, K24384-001-R-PDC, and 521955-158-R2-J5-PDC pancreatic carcinomas, 556581-035-R-J1 ovarian carcinoma, 324938-238-R-J1-PDC, 855422-203-R-J1-PDC and 883617-216-R-J1-PDC urothelial bladder carcinomas, 743489-274-T-PDC renal cell carcinoma, 138582-R-J1 Merkel cell tumor, K60290-347-R-J1 and K57222-313-R-J1-PDC glioblastomas, 653999-131-R-J2-PDC, LG0703-F948-PDC, and 349418-098-R-PDC non-small cell lung carcinomas, 885512-296-R-J2-PDC, 171881-019-R-J1-PDC breast carcinomas and 186277-243-T-J2-PDC and 233499-124-R-J2-PDC colon carcinomas were obtained from the NCI Patient-Derived Models Repository (PDMR, https://pdmr.cancer.gov). The established cell lines NCI/ADR-RES (RRID:CVCL_14520 and OVCAR-5 (RRID:CVCL_1628) ovarian carcinomas, 786-O (RRID:CVCL_1051) and A498 (RRID:CVCL_A498) renal cell carcinoma, NCI-H211 (ATCC, cat. CRL-5824; RRID:CVCL_1529), NCI-H196 (ATCC, cat. CRL-5823, RRID:CVCL_1509), SW 1271 (ATCC, cat. CRL-2177, RRID:CVCL_1716) and NCI-H1876 (ATCC, cat. CRL-5902, RRID:CVCL_1503) small cell lung carcinomas, MDA-MB-231 (RRID:CVCL_0062) and MDA-MB-468 (RRID:CVCL_0419)breast carcinomas (10-12). Pooled donor human umbilical vein endothelial cells (HUVEC, Lonza, cat. CC-2519) and human mesenchymal stem cells (hMSC, Lonza, cat. PT-2501) were purchased from Lonza (Walkersville, MD).
Cell Culture. All cells were maintained in an incubator at 37 degrees C and 5% CO2 with 95% humidity. The PDC lines were cultured according to standard operating procedures established by the NCI PDMR (https://pdmr.cancer.gov). Briefly all PDCs were thawed and cultured in Matrigel-coated flasks prepared with a working solution of 1X Ham's F-12 nutrient mix, without supplementation (Invitrogen, Waltham, MA, cat. 11765054), 100 U/mL penicillin-streptomycin (Invitrogen, cat. 15140122), and 2.5% Matrigel (Corning Inc., Corning, NY, cat. 354248) for the first three passages. […]

Structures are written as SMILES. Several values for one entry are separate records, joined by “and”; a condition that tells them apart may be missing. Identical values can stand only once. Some results are limits rather than exact numbers.

One may read the viability, T/C as the result in the treated group divided by that in the control group, in per cent. As usually defined, the IC50 is the concentration at which inhibition is half-maximal.

Take `CC(C)CC(NC(=O)C(Cc1ccccc1)NC(=O)c1cnccn1)B(O)O` (stereo not drawn): the IC50 was 9.31 nM and 9.96 nM. Also, the viability, T/C (compound 0.000316 µM) is 96.1% and 106%. Besides, the viability, T/C (compound 0.001 µM) is 102% and 107%. Moreover, the viability, T/C (compound 0.00316 µM) is 92.5% and 93.3%. The viability, T/C (compound 0.01 µM) is 47.3% and 51.2%. Moreover, the viability, T/C (compound 0.0316 µM) was 5.97% and 5.35%. Under “compound 0.1 µM”, the viability, T/C was 2.36% and 0.51%.

Consider `CC(C)CC(NC(=O)CNC(=O)c1cc(Cl)ccc1Cl)B1OC(=O)CC(CC(=O)O)(C(=O)O)O1` (stereo not drawn), for which the IC50 is 25 nM and 21 nM. Further, the viability, T/C (compound 0.000316 µM) is 98% and 97.7%. In addition, the viability, T/C (compound 0.001 µM) was 105% and 96.7%. In addition, the viability, T/C (compound 0.00316 µM) was 103% and 105%. For the same compound, the viability, T/C (compound 0.01 µM) was 71.3% and 79.3%. Under “compound 0.0316 µM”, the viability, T/C was 45.7% and 33.5%. Where the note is “compound 0.1 µM”, the viability, T/C is 4.13% and 1.05%.

As for `CC1(C)CCC(CN2CCN(c3ccc(C(=O)NS(=O)(=O)c4ccc(NCC5CCOCC5)c([N+](=O)[O-])c4)c(Oc4cnc5[nH]ccc5c4)c3)CC2)=C(c2ccc(Cl)cc2)C1`, the IC50 was more than 10000 nM. Moreover, the viability, T/C (compound 0.0316 µM) was 99.8% and 108%. Also, the viability, T/C (compound 0.1 µM) is 108% and 106%. Further, the viability, T/C (compound 0.316 µM) was 101% and 106%. In addition, where the note is “compound 1 µM”, the viability, T/C is 104% and 105%. For the same compound, where the note is “compound 3.16 µM”, the viability, T/C is 101% and 104%. In addition, the viability, T/C (compound 10 µM) is 94.1% and 90%.

Take `CC1COCCN1c1cc(-c2ccnn2C)c2ccnc(-c3ccn[nH]3)c2n1` (stereo not drawn): the IC50 is 13 nM and 7.27 nM. Further, the viability, T/C (compound 0.00316 µM) is 89.5% and 71.9%. The viability, T/C (compound 0.01 µM) is 61.3% and 41.6%. For the same compound, under “compound 0.0316 µM”, the viability, T/C was 11.2% and 7.14%. For the same compound, the viability, T/C (compound 0.1 µM) is 3.93% and 1.95%. Besides, under “compound 0.316 µM”, the viability, T/C is 2.2% and 2.13%. The viability, T/C (compound 1 µM) is 4.12% and 1.96%.

Regarding `CCN(c1cc(-c2ccc(CN3CCOCC3)cc2)cc(C(=O)NCc2c(C)cc(C)[nH]c2=O)c1C)C1CCOCC1`, the IC50 is more than 3000 nM. In addition, the viability, T/C (compound 0.00949 µM) is 99.6% and 106%. Moreover, the viability, T/C (compound 0.03 µM) was 98.7% and 102%. Further, under “compound 0.0949 µM”, the viability, T/C is 98.2% and 104%. For the same compound, under “compound 0.3 µM”, the viability, T/C was 99% and 97.8%. Moreover, under “compound 0.949 µM”, the viability, T/C was 91.6% and 97.3%. For the setting “compound 3 µM”, the viability, T/C was 86.3% and 88%.

On to `CC[C@@]1(O)C(=O)OCc2c1cc1n(c2=O)Cc2cc3c(CN(C)C)c(O)ccc3nc2-1`, for which the IC50 is 7.18 nM and 7.06 nM. The viability, T/C (compound 0.000316 µM) is 102% and 96.9%. For the same compound, for the setting “compound 0.001 µM”, the viability, T/C is 102% and 100%. Further, the viability, T/C (compound 0.00316 µM) is 78.6% and 75.9%. The viability, T/C (compound 0.01 µM) was 39.1% and 39.4%. Where the note is “compound 0.0316 µM”, the viability, T/C was 7.88% and 7.23%. For the same compound, the viability, T/C (compound 0.1 µM) was 2.74% and 2.23%.

With `CCc1c2c(nc3ccc(O)cc13)-c1cc3c(c(=O)n1C2)COC(=O)[C@]3(O)CC`, the IC50 was less than 0.949 nM. For the same compound, the viability, T/C (compound 0.000949 µM) was 4.28% and 3.34%. Also, the viability, T/C (compound 0.003 µM) is 2.36% and 1.64%. Under “compound 0.00949 µM”, the viability, T/C is 0.57% and 0.82%. Besides, under “compound 0.03 µM”, the viability, T/C is 6.31% and 0.48%. The viability, T/C (compound 0.0949 µM) was 0.34% and 0.47%. For the same compound, under “compound 0.3 µM”, the viability, T/C is 0.83% and 0.64%.

On to `COc1cc(C2c3cc4c(cc3C(OC3OC5COC(C)OC5C(O)C3O)C3COC(=O)C23)OCO4)cc(OC)c1O` (stereo not drawn), for which the IC50 was more than 3000 nM. The viability, T/C (compound 0.00949 µM) is 96.8% and 107%. In addition, the viability, T/C (compound 0.03 µM) is 100% and 104%. For the same compound, the viability, T/C (compound 0.0949 µM) was 96.4% and 104%. Further, under “compound 0.3 µM”, the viability, T/C was 95.8% and 105%. The viability, T/C (compound 0.949 µM) was 96.1% and 98.4%. Moreover, the viability, T/C (compound 3 µM) is 93.1% and 90.2%.

In the case of `COc1cc(Nc2ncc3c(n2)-c2ccc(Cl)cc2C(c2c(F)cccc2OC)=NC3)ccc1C(=O)O`, the IC50 is 16.9 nM and 10 nM. The viability, T/C (compound 0.00316 µM) is 95.4% and 84.5%. Moreover, the viability, T/C (compound 0.01 µM) is 64.5% and 50%. Besides, the viability, T/C (compound 0.0316 µM) was 32.7% and 30%. For the same compound, where the note is “compound 0.1 µM”, the viability, T/C is 22.9% and 20.4%. In addition, under “compound 0.316 µM”, the viability, T/C was 22.6% and 16.1%. For the same compound, the viability, T/C (compound 1 µM) is 19.7% and 15.5%.

The values above are taken from PubChem BioAssay AID1918955 (Molecular Pharmacology Branch, DTP, NCI, 2023).
